According to US11083706B2, “Lactams for use in the treatment of skin lesions” (priority 2016, dated 2021):
pIC50: −log10 of the molar value. Entries after “also recorded” stand apart in the source; their conditions may differ.

Columns and labels:
PqsR = target: T1, PqsR (Pseudomonas aeruginosa, UniProt Q9I4X0); experiment: PQS-dependent pqsA::lux expression in AQ-non-producing PAO1-L ΔpqsA (PqsR antagonism); format: cell-based, P. aeruginosa PAO1-L ΔpqsA
T1 construct: endogenous in cells; host or cells: P. aeruginosa PAO1-L ΔpqsA pqsA::lux (chromosomal reporter fusion)
Experimental: By using the AQ-non producing P. aeruginosa strain PAO1-L ΔpqsA, pqsA::lux, the EC50 value for the native PqsR agonist, PQS was calculated as ˜2 μM (Ilangovan et al. 2013). […]
A partial agonist is a molecule that can bind to and activate a receptor resulting in a non-complete response compared with a full agonist. […] This contrasts with its activity as an antagonist in the presence of 10 or 40 μM PQS.

[1] = system: PqsR-independent pathway of pqsA expression; experiment: PqsR-independent expression of pqsA'::lux in PAO1-N ΔpqsAHR; format: cell-based, P. aeruginosa PAO1-N ΔpqsAHR; conditions: presence or absence of 40 μM PQS
From the text: PQS is capable of weakly activating pqsA in the absence of PqsR via a mechanism that is not fully understood but appears to depend on the iron chelating properties of PQS. The aim of this experiment was to clarify whether lactam 4-(4-chlorophenyl)-5-methylene-pyrrol-2-one (Ref. 488) is also inhibitory for pqsA expression via the PqsR independent pathway. As previously described, the pqsA′::lux biosensor based on the triple mutant PAO1-N ΔpqsAHR cannot produce AQs and lacks pqsR but still responds to exogenous PQS. This response is however much weaker that the PqsR-dependent response.

[2] = system: enzymes (PqsABCD) involved in AQ biosynthesis; experiment: HHQ/AQ biosynthesis in PAO1-N ΔpqsAHR pBBR-pqsABCD, TLC with biosensor overlay; format: cell-based, P. aeruginosa PAO1-N ΔpqsAHR; conditions: 488 200 μM, overnight in LB
From the text: To determine whether 4-(4-chlorophenyl)-5-methylene-pyrrol-2-one (Ref. 488) is capable of inhibiting the enzymes (PqsABCD) involved in AQ biosynthesis, the P. aeruginosa PAO1-N ΔpqsAHR was exploited. This mutant cannot produce AQs because the genes coding for the key biosynthetic enzymes (PqsA and PqsH) and regulation (PqsR) have been deleted. To restore AQ production in a PqsR-independent manner in PAO1-N ΔpqsA, the pqsABCD genes were introduced on a plasmid (pBBR pqsABCD; Niewerth et al. 2011). P. aeruginosa PAO1-N ΔpqsAHR and P. aeruginosa PAO1-N ΔpqsAHR pBBR pqsABCD were both incubated overnight in LB with and without 4-(4-chlorophenyl)-5-methylene-pyrrol-2-one (Ref. 488) (200 μM), resuspended to an OD600 1.0. The cultures were extracted with acidified ethyl acetate, the organic phase removed, dried and resuspended in methanol subjected to thin layer chromatography (TLC).
After chromatography using a dichloromethane-methanol mobile phase, the TLC plates were overlaid with a thin agar layer containing the AQ biosensor strain PAO1-L ΔpqsA CTX::pqsA′-luxCDABE (Fletcher et al. 2007) incubated and examined for reporter output (FIG. 13). […] The biosensor strain produces light (FIG. 13 panel C) and pyocyanin (FIG. 13 panel B) in response to AQs that bind to PqsR and activate the pqsA promoter.

[3] = system: pyocyanin production by PAO1-L; experiment: Pyocyanin production by PAO1-L, visual assessment; format: cell-based, P. aeruginosa PAO1-L; conditions: 488 at 100 μM (vial 2), 8 h at 37° C., PAO1-L culture supernatant
From the text: Pyocyanin is a blue redox-active secondary metabolite and a putative signalling molecule in P. aeruginosa (Jayaseelan et al, 2014). The pyocyanin biosynthetic (phz) genes are regulated by QS and in part via the transcriptional regulator PqsR acting through PqsE (Rampioni et al 2011).
Although qualitative, this observation offers further confirmation of the inhibitory effects of lactam 4-(4-chlorophenyl)-5-methylene-pyrrol-2-one (Ref. 488) on AQ-dependent QS.

[4] = system: PqsR-dependent pqsA::lux promoter fusion; experiment: pqsA::lux promoter fusion expression in P. aeruginosa PAO1-L (AQ-dependent QS biosensor); format: cell-based; conditions: for pIC50: Pseudomonas aeruginosa, PAO1, read-out: IC50, pqsA::lux expression; for extent of inhibition of light output / pqsA expression at high concentrations: PAO1 pqsA::lux; for inhibition of pqsA::lux expression in first screening (FIG. 1-3): lactam 100 μM, control LB medium+1% methanol
Experimental: The expression of rhl and las AHL- and the pqsA AQ-synthase genes was evaluated using lux-based lasI (FIG. 1), rhlI (FIG. 2) and pqsA (FIG. 3) chromosomally integrated promoter fusions. Luminescence was quantified as a function of bacterial growth. The applicant further determined that none of the lactams is growth inhibitory at 100 μM using a large number of strains (figure not shown).
To determine the relative inhibitory activities (IC50s) of 4-(4-chlorophenyl)-5-methylene-pyrrol-2-one (Ref. 488) and 5-methylene-4-(p-tolyl)pyrrol-2-one (Ref. 491), dose response curves were constructed using the same biosensor strain (P. aeruginosa PAO1 pqsA::lux; Fletcher et al, 2007; Ilangovan et al 2013). This strain produces light in response to the endogenous production of AQs such as PQS and HHQ.

T1 sequence (Q9I4X0 whole entry, the tested form may be a part): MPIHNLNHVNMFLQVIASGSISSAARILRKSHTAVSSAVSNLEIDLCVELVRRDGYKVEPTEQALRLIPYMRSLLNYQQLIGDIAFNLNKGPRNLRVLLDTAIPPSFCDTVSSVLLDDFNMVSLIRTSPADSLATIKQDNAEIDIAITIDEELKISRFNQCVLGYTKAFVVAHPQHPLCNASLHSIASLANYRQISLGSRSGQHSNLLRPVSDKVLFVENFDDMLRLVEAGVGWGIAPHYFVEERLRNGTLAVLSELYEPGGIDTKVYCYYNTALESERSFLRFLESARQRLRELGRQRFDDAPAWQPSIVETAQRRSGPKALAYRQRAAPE

SMILES	mode of antagonism of PQS-dependent pqsA::lux expression (PqsR; 488 at 0, 50, 100, 200 μM with range of PQS concentrations)	restoration of light output by PQS in the presence of 488 (PqsR; 488 at 50, 100, 200 μM)	partial agonist activity (activation of pqsA expression) (PqsR; 488 up to 800 μM, PQS 0 μM, PAO1-L ΔpqsA pqsA'::lux)	fold increase of PQS EC50 in the presence of 488 (PqsR; fixed concentration of 488 (215 μM)) [fold]	effect on PqsR-independent expression of pqsA [1]	inhibition of HHQ biosynthesis [2]	pyocyanin production (qualitative) [3]	pIC50 [4]	extent of inhibition of light output / pqsA expression at high concentrations [4]	inhibition of pqsA::lux expression in first screening (FIG. 1-3) [4]
C=C1NC(=O)C=C1c1ccc(Cl)cc1 [Lactam 488, 4-(4-chlorophenyl)-5-methylene-pyrrol-2-one]	competitive antagonist	fully restoring light output in the presence of 50 μM but not 100 μM or 200 μM	no partial agonist activity	~15	small inhibitory effect	did not inhibit HHQ biosynthesis	inhibition of pyocyanin production	4.66	completely inhibited light output; also recorded: fully knock out the PQS	most potent inhibitor; also recorded: inhibition of the pqs-system is the main effect
C=C1NC(=O)C=C1c1ccc(C)cc1 [Lactam 491, 5-methylene-4-(p-tolyl)pyrrol-2-one]								4.36	did not inhibit pqsA expression as strongly; also recorded: did not give complete knock out	inhibition of the pqs-system is the main effect
